{"source": "patent US20230011800A1", "about": "“[…] CHIP FOR […] AND TOXICITY ON NERVE, AND USE THEREOF” (CHA UNIVERSITY INDUSTRY-ACADEMIC COOPERATION FOUNDATION, priority 2019, published 2023)", "assay_type_in_all_cases": "cell-based", "key": {"[1]": {"system": "neurons differentiated from human stem cells (hPSCs) (Neurosight-S)", "assay": "MeHg neurotoxicity on neurons cultured alone in the nerve chip, immunostaining with Tuj1 and MAP2", "settings": "1 μM, 5 μM and 10 μM MeHg, 3 hours", "experimental": "(§1) It was assessed whether neurotoxicity can be evaluated by a noticeable biomimetic nerve chip of the present invention in which an in vivo environment similar to physiological characteristics of the nervous system was constructed. First, methylmercury chloride (MeHg), a representative environmental toxic substance known to pass through the brain barrier regardless of a structure of the brain barrier and to have neurotoxicity, was selected as a toxic substance for treatment. The neurotoxicity evaluation was conducted by treating a chip having only neurons cultured and a chip having neurons and astrocytes co-cultured, with MeHg at various concentrations (0 μM, 1 μM, 5 μM, 10 μM) for 3 hours and then examining the cell response changes according to the MeHg time and concentration through real-time live cell imaging and immunocytochemistry, and then the functionality of the biomimetic nerve chip as a drug toxicity evaluation platform was assessed (FIGS. 8 to 10).\nThe cell types can be distinguished by morphological characteristics of cells, but Calcein-AM targets all living cells regardless of the type of cells and thus cannot clearly identify the types of cells. The present inventors re-examined whether the neurons were damaged at the same extent by MeHg, through immunostaining using Tuj1 and MAP2 antibodies targeting only neurons (FIG. 8C)."}, "[2]": {"system": "neurons co-cultured with astrocytes (human stem cell-derived)", "assay": "MeHg neurotoxicity on neurons co-cultured with astrocytes in the nerve chip (astrocyte neuroprotection), Calcein-AM and MAP2", "experimental": "(§2) The injection of cells was conversely conducted. Human stem cell-derived neurons (Neurosight-S) were preferentially injected, wherein the neurons were prepared at an appropriate concentration for injection of 15×10^4 cells/6 μL, load into the neuron inlet, and injected into the neuron chamber. Human stem cell-derived astrocytes were prepared at an appropriate concentration for injection of 15×10^4 cells/6 μL, and nozzles of syringes each carrying 30 μL were connected to the astrocyte inlets, and the astrocytes were injected into the two astrocyte chambers by using a syringe pump.\nas §1\nFinally, it was examined whether there was a neuroprotective function from the neurotoxicity of MeHg depending on the presence or absence of astrocytes inside the biomimetic nerve chip. MeHg treatment was conducted under two conditions in which […] were cultured alone and neurons and astrocytes were co-cultured, and the cell viability was evaluated in real time according to the time and concentration changes by using Calcein-AM (FIGS. 10A to 10C). […]"}, "[3]": {"system": "astrocytes differentiated from human stem cells (hPSCs)", "assay": "MeHg toxicity on astrocytes in the nerve chip, immunostaining with GFAP and S100B", "settings": "3 hours", "experimental": "as §1\nOn the basis of the assertion that this S100B increase is associated with CNS damage, immunostaining was performed using GFAP and S100B, which were used as markers for brain damage due to metal-induced neurotoxicity, in order to identify astrocytes and examine the response of astrocytes in the MeHg detection (FIG. 9C)."}, "[4]": {"system": "astrocytes differentiated from human stem cells (hPSCs)", "assay": "MeHg toxicity on astrocytes cultured in the nerve chip, Calcein-AM live cell imaging", "description": "Astrocytes, differentiated from human stem cells (hPSCs), were secured by direct differentiation. Human stem cells (hPSCs) were maintained through culture and passage by using TeSr-E8 medium in a Matrigel-coated culture dish, and for differentiation into neurons, neural progenitor cells (NPCs) were first prepared. The stem cell colonies were detached using […], and then embryoid bodies (EBs) were formed using DMEM/F12 medium containing 20% knock out serum replacement, 1% nonessential amino acids, 55 μM β-mercaptoethanol, 10 μM SB431542, and 5 μM DMH1, and then again attached to a Matrigel-coated culture dish to form neural rosettes in DMEM/F12 medium containing 1% N2 supplement, […] insulin, and 20 ng/mL basic fibroblast growth factor. Only the center of the rosettes was separated using a thinly drawn Pasteur pipette, and then cultured in DMEM/F12 medium containing 1% N2 supplement, 20 ng/mL basic fibroblast growth factor, and 20 ng/mL epidermal growth factor to secure NPCs. The secured NPCs were again attached to a Matrigel-coated culture dish at a density of 2.8×10^3 cells/cm, and cultured in DMEM/F12 medium containing 1% N2 supplement, 2% vitamin A-removed B27 supplement, 10 ng/mL bone morphogenetic protein-4, 10 ng/mL ciliary neurotrophic factor, and 10 ng/mL leukemia inhibitory factor to thereby obtain finally differentiated astrocytes. […]\nas §1, with “First, methylmercury chloride (MeHg), a representative environmental toxic substance known to pass through the brain barrier regardless of a structure of the brain barrier and to have neurotoxicity, was selected as a toxic substance for treatment.” left out"}, "[5]": {"system": "neurons differentiated from human stem cells (hPSCs) (Neurosight-S)", "assay": "MeHg neurotoxicity on neurons cultured alone in the biomimetic nerve chip, Calcein-AM live cell imaging", "experimental": "Neurons differentiated from human stem cells (hPSCs) were secured through neurons (Neurosight-S) by NEXEL. A stock was thawed and injected immediately into the chip. The neurons were prepared at an appropriate concentration for injection of 15×10^4 cells/6 μL, loaded into the neuron inlet included in the nerve chip of the present invention, and injected into the neuron chamber passing through the neuron channel. The bottom of the neuron chamber was coated with Matrigel, which was three times more concentrated than usual, for stable attachment in the chip, and the neurons were cultured in Neurosight-S medium supplemented with Supplement (100×) for 3 days during which neurites can be formed.\nas §2, §1\nMost of the neurons in the control group formed neurite networks while having intact cell bodies and neurites.\nThe MeHg treatment concentrations were set to 1 μM, 5 μM, and 10 μM, and similarly, the viability of neurons was examined in real time through Calcein-AM."}, "[6]": {"settings": "in the presence of astrocytes, MeHg 1, 5, 10 μM, 3 hours"}, "[7]": {"settings": "as the concentration of MeHg increased (1, 5, 10 μM)"}}, "note": "Entries after “also recorded” stand apart in the source; their conditions may differ.", "data": [{"smiles": "[CH3][Hg][Cl]", "note": "[MeHg, methylmercury chloride]", "values": [{"measurement": "damage to neurons, immunostaining Tuj1 and MAP2", "setting": "[1]", "value": "the damage to cells increased as the concentration increased"}, {"measurement": "Calcein-AM signal of neurons according to concentration", "setting": "[2]; [6]", "value": "maintained without any decrease"}, {"measurement": "MAP2 signal of neurons according to concentration", "setting": "[2]; [6]", "value": "maintained without any decrease"}, {"measurement": "viability and morphological changes of neurons over time, Calcein-AM", "setting": "[2]; neurons co-cultured with astrocytes, 10 μM MeHg, until 3 hours after treatment", "value": "no significant changes were observed, except for a few strands of neurites that partially disappeared"}, {"measurement": "GFAP expression signal in astrocytes", "setting": "[3]; [7]", "value": "the GFAP signal decreased"}, {"measurement": "S100B expression signal in astrocytes", "setting": "[3]; [7]", "value": "the S100B signal increased"}, {"measurement": "viability of astrocytes, immunostaining", "setting": "[3]; astrocytes, MeHg 1, 5, 10 μM", "value": "the viability of astrocytes was not changed"}, {"measurement": "degree of morphological change of astrocytes according to concentration, Calcein-AM", "setting": "[4]; MeHg 1, 5, 10 μM, 3 hours", "value": "no significant difference in the degree of morphological change due to cell aggregation regardless of the concentration"}, {"measurement": "cell viability of astrocytes, Calcein-AM", "setting": "[4]; MeHg 1, 5, 10 μM, up to 3 hours", "value": "no decrease in cell viability was observed"}, {"measurement": "morphological changes of astrocytes over time, Calcein-AM", "setting": "[4]; MeHg, 1-hour intervals for 3 hours", "value": "morphological changes of astrocytes due to cell aggregation were observed over time"}, {"measurement": "viability and morphology of neurons (neurites), Calcein-AM", "setting": "[5]; 1 μM MeHg, after 3 hours", "value": "some neurites endured neurotoxicity of MeHg without damage to maintain the state thereof"}, {"measurement": "viability and morphology of neurons (neurites), Calcein-AM", "setting": "[5]; 5 μM MeHg, after 3 hours", "value": "the neurites almost completely disappeared, leaving only fragmented fragments and only a form of cell bodies; also recorded: neurites disappeared and only the cell bodies remained"}, {"measurement": "viability and morphology of neurons (neurites), Calcein-AM", "setting": "[5]; 5 μM MeHg, until 2 hours after treatment", "value": "the neurites maintained the state thereof with deterioration little by little without any significant change"}, {"measurement": "Calcein-AM signal of neurons over time", "setting": "[5]; 10 μM MeHg, 1-hour intervals for 3 hours", "value": "most of the Calcein-AM signals started to rapidly decrease 2 hours after MeHg treatment"}, {"measurement": "viability and morphology of neurons (neurites, cell bodies), Calcein-AM", "setting": "[5]; 10 μM MeHg, after 3 hours", "value": "even the fluorescence signal of the remaining cell bodies was greatly reduced"}]}]}
